Data: US20020106348A1, “Cancer therapeutics involving the administration of 2-methoxyestradiol and an agent that increases intracellular superoxide anion” (priority 2000, published 2002)

Legend:
human DNA polymerase α = human DNA polymerase α (Homo sapiens, UniProt P09884); assay: Effect on DNA polymerase α; format: biochemical; details: 1-100 μM
SOD1 protein = assay: Immunoblot of SOD1 protein in ML-1 cells; format: cell-based, human; details: ML-1 cells at 10 h
ALL cells = assay: MTT assay, primary ALL cells; format: cell-based, human; details: 30 μM, 2 patients
[1] = test system: leukemia cells from a CML (chronic myelogenous leukemia) patient in relapsed blast crisis; assay: Induction of apoptosis in primary leukemia cells from a CML patient; format: cell-based, human; details: in vitro
ML-1 [2] = assay: Apoptosis / nucleosomal DNA fragmentation in ML-1 cells; format: cell-based, human; details: 1 μM; ML-1 (wt p53)
normal lymphocytes = assay: MTT assay, normal lymphocytes from healthy donors; format: cell-based, human; details: normal lymphocytes from 8 healthy donors; MTT 72 h / 96 h
[3] = test system: bovine alkaline phosphatase; assay: Effect on alkaline phosphatase (removal of 5'-phosphate from [14C]GMP); format: biochemical; details: 1-100 μM
ML-1 [4] = assay: MTT assay, ML-1 leukemia cells; format: cell-based; details: Homo sapiens, ML1, ML-1 (wt p53)
SOD = SOD inhibition in vitro (restated, enzyme not specified); format: biochemical; details: restated in discussion
HL-60 = assay: Apoptosis / nucleosomal DNA fragmentation in HL-60 cells; format: cell-based, human

Sequence of human DNA polymerase α (P09884 whole entry): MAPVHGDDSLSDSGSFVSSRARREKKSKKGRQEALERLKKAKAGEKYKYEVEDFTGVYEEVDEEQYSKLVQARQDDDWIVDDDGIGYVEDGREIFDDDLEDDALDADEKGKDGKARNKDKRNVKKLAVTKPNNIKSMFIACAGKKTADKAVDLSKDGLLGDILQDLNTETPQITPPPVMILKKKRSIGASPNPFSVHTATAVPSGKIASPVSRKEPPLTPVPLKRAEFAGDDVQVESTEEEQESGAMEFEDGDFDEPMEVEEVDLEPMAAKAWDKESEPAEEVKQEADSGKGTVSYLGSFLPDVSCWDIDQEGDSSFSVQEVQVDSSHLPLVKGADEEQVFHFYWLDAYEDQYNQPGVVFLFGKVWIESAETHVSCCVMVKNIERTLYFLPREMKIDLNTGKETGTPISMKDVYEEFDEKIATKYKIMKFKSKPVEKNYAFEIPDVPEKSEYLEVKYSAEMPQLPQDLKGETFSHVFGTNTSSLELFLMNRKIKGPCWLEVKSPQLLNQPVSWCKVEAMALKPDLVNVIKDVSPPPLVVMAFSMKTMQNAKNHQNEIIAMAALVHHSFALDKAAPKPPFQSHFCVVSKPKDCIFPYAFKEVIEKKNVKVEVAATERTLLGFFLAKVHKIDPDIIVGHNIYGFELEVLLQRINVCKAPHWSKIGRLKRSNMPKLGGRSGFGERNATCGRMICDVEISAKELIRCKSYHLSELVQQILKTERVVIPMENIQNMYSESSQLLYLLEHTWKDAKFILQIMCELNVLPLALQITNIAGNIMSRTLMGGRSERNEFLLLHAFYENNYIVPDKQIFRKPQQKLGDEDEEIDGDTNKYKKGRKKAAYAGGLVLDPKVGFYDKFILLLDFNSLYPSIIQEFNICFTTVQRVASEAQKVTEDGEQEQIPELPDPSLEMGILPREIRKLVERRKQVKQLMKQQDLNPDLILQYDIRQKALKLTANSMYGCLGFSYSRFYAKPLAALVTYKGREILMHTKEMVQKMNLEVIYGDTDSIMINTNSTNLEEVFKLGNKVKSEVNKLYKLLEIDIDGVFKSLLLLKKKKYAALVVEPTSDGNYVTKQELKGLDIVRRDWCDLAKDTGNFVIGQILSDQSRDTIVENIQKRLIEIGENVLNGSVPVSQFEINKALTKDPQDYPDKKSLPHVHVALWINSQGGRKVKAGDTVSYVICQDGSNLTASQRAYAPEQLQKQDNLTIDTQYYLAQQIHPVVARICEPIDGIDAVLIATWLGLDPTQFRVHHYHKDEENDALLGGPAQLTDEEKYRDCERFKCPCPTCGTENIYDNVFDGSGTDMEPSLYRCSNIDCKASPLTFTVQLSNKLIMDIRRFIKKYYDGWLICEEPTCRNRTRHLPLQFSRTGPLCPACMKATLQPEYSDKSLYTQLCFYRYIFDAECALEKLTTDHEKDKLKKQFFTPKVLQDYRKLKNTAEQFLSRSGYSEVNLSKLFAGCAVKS

With `COc1cc2c(cc1O)CC[C@@H]1[C@@H]2CC[C@]2(C)[C@@H](O)CC[C@@H]12` [2-ME, 1,3,5(10)-estratrien-2,3,17b-triol 2 methylether] the “effect on DNA polymerase α” value (human DNA polymerase α) was “little effect”, the “increase of SOD1 protein” value (SOD1 protein) was 74% and the cell survival (ALL cells) was 56.5%. The “apoptosis in primary CML cells” value [1] was “induced apoptosis”, the “apoptotic morphology and nucleosomal DNA fragmentation” value (ML-1 [2]) was “Typical apoptotic morphology and nucleosomal DNA fragmentation were observed” and the cell survival (normal lymphocytes) was “no apparent loss of cell survival”. The “effect on alkaline phosphatase” value [3] was “little effect”, the IC50 (ML-1 [4]) was less than 1 µM and the IC50 (SOD) was roughly 20 µM. The “apoptotic morphology and nucleosomal DNA fragmentation” value (HL-60; 1 μM, HL-60 (p53−)) was “Typical apoptotic morphology and nucleosomal DNA fragmentation were observed” and the “DNA fragmentation (apoptosis) in HL-60 cells” value (HL-60; estrogen derivatives, FIG. 20) was “induced DNA fragmentation”.
